In patent US20220105081A1 (priority 2020, published 2022):
pIC50: −log10 of the molar value. Entries after “also recorded” stand apart in the source; their conditions may differ.

Key:
Sigma sites = assay: Receptor activity profile (stated)
[1] = target: T1, CHRM1 (Cholinergic Muscarinic Receptor 1) (Homo sapiens, UniProt P11229); assay: DiscoverX GPCR Max Panel screen; type: cell-based; conditions: VDM-001 at 30 μM; Assay Mode Antagonist
T1 sequence (P11229 1-460): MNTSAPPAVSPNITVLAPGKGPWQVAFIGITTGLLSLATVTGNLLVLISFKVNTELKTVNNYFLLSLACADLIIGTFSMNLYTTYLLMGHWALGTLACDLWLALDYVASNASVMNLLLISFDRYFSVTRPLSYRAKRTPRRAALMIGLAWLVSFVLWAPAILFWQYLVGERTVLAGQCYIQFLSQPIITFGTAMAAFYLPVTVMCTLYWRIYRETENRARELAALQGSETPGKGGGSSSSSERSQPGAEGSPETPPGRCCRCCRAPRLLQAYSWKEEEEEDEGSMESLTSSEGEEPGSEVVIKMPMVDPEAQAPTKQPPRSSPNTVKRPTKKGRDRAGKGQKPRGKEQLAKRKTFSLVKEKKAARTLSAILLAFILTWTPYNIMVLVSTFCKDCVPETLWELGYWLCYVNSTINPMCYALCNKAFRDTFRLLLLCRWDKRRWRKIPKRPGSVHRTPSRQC
Experimental: (§1) In Example 2, DiscoverX platform screening (GPCR Max Panel) of VDM-001(composition of formula I)) at a concentration of 30 μM (the IC50 for VDM-001 from the GTPgS studies) was conducted to confirm the data from the GTPgS study and to determine broad selectivity of over 336 protein targets. MOR antagonism was confirmed (87% activity) along with other targets with >50%. Overall 13 proteins were engaged by VDM-001 with greater than 50% activity.

[2] = target: T2, DRD4 (Dopamine D4 receptor) (Homo sapiens, UniProt P21917); assay: DiscoverX GPCR Max Panel screen; type: cell-based; conditions: VDM-001 at 30 μM; Assay Mode Antagonist
T2 sequence (P21917 1-419): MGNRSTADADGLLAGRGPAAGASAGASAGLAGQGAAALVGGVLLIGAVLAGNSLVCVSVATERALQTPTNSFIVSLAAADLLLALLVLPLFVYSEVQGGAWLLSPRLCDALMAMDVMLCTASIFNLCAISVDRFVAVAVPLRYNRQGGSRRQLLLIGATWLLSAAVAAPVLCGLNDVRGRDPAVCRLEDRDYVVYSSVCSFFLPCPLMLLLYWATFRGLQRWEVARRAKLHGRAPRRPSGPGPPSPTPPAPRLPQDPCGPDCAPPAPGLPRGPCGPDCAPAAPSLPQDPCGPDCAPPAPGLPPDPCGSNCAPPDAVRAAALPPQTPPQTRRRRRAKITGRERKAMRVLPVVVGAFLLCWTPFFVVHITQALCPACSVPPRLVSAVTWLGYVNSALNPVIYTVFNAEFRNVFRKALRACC
Experimental: as §1

[3] = target: T3, CHRM4 (Cholinergic Muscarinic Receptor 4) (Homo sapiens, UniProt P08173); assay: DiscoverX GPCR Max Panel screen; type: cell-based; conditions: VDM-001 at 30 μM; Assay Mode Antagonist
T3 sequence (P08173 1-479): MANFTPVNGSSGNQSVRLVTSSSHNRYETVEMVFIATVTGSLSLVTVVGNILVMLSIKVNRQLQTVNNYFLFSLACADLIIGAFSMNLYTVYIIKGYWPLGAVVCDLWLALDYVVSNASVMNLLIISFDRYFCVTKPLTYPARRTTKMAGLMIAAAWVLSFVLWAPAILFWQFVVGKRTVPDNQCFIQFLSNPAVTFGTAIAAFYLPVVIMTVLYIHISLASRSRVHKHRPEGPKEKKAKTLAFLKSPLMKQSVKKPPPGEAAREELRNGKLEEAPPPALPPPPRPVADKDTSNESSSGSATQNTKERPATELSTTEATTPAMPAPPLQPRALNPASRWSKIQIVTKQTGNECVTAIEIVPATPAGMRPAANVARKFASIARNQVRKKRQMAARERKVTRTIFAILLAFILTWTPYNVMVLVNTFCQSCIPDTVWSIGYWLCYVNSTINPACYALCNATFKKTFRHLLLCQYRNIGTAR
Experimental: as §1

[4] = target: OPRM1 (Mu Opiate receptor) (Homo sapiens, UniProt P35372); assay: DiscoverX GPCR Max Panel screen; type: cell-based; conditions: VDM-001 at 30 μM; Assay Mode Antagonist
Experimental: as §1

[5] = target: T4, ADRA2B (Alpha 2B adrenergic receptor) (Homo sapiens, UniProt P18089); assay: DiscoverX GPCR Max Panel screen; type: cell-based; conditions: VDM-001 at 30 μM; Assay Mode Antagonist
T4 sequence (P18089 1-450): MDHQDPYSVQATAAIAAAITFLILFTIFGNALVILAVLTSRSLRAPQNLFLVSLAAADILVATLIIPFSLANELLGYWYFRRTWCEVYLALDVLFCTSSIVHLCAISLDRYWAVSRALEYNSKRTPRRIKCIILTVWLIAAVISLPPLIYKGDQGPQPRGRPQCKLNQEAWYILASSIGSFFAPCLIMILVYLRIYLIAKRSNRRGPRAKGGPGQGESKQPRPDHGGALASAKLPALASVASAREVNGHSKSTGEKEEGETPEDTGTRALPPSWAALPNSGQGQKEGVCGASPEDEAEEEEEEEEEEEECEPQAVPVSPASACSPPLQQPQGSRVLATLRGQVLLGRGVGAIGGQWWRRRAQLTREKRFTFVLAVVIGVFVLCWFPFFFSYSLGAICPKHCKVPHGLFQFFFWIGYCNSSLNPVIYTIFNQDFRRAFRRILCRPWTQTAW
Experimental: as §1

[6] = target: T5, HTR1A (Serotonin 1A receptor) (Homo sapiens, UniProt P08908); assay: DiscoverX GPCR Max Panel screen; type: cell-based; conditions: VDM-001 at 30 μM; Assay Mode Antagonist
T5 sequence (P08908 1-422): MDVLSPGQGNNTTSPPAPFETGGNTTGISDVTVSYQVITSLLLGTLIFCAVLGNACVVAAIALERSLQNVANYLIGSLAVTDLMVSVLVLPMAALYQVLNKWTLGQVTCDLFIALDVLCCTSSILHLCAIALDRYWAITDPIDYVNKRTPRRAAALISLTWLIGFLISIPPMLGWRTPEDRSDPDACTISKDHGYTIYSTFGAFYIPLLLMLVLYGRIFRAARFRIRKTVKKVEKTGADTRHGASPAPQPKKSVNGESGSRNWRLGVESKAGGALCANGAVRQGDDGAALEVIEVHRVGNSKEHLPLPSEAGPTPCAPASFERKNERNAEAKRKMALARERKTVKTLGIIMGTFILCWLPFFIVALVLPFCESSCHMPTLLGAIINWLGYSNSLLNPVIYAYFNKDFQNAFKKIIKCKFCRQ
Experimental: as §1

[7] = target: T6, CHRM5 (Cholinergic Muscarinic Receptor 5) (Homo sapiens, UniProt P08912); assay: DiscoverX GPCR Max Panel screen; type: cell-based; conditions: VDM-001 at 30 μM; Assay Mode Antagonist
T6 sequence (P08912 1-532): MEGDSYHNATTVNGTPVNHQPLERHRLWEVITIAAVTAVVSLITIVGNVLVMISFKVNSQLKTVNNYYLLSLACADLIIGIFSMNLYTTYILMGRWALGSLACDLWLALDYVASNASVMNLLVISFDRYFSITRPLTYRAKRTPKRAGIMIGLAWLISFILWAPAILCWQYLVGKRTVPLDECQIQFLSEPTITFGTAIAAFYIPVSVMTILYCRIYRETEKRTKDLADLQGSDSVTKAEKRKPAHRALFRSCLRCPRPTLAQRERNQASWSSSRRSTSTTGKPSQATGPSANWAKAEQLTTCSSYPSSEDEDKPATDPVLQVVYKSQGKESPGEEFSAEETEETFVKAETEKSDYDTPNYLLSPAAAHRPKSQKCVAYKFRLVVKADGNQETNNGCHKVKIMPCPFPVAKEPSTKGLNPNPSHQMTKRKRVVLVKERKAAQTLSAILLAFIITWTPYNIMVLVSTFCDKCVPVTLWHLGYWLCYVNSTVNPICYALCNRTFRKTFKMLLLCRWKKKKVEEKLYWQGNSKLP
Experimental: as §1

[8] = target: CHRM3 (Cholinergic Muscarinic Receptor 3) (Homo sapiens, UniProt P20309); assay: DiscoverX GPCR Max Panel screen; type: cell-based; conditions: VDM-001 at 30 μM; Assay Mode Antagonist
Experimental: as §1

[9] = target: T7, ADRA1B (Alpha 1B adrenergic receptor) (Homo sapiens, UniProt P35368); assay: DiscoverX GPCR Max Panel screen; type: cell-based; conditions: VDM-001 at 30 μM; Assay Mode Antagonist
T7 sequence (P35368 1-520): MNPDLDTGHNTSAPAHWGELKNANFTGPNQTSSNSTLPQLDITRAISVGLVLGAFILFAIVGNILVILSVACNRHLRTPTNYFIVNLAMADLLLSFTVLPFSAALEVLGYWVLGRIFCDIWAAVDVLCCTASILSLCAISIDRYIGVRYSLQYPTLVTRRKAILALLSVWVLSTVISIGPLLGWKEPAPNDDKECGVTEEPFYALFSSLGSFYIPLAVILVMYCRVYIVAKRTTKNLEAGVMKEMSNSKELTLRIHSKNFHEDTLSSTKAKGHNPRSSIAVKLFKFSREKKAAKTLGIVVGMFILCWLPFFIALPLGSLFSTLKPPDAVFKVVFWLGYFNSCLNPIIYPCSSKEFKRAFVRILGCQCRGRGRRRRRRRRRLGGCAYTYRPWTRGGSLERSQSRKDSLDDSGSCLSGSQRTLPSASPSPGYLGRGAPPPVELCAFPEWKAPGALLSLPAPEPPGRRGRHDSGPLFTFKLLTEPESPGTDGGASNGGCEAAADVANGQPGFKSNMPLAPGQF
Experimental: as §1

[10] = target: HRH1 (Histamine H1 receptor) (Homo sapiens, UniProt P35367); assay: DiscoverX GPCR Max Panel screen; type: cell-based; conditions: VDM-001 at 30 μM; Assay Mode Antagonist
Experimental: as §1

[11] = target: T8, ADRA2C (Adrenergic receptor alpha 2C) (Homo sapiens, UniProt P18825); assay: DiscoverX GPCR Max Panel screen; type: cell-based; conditions: VDM-001 at 30 μM; Assay Mode Antagonist
T8 sequence (P18825 1-462): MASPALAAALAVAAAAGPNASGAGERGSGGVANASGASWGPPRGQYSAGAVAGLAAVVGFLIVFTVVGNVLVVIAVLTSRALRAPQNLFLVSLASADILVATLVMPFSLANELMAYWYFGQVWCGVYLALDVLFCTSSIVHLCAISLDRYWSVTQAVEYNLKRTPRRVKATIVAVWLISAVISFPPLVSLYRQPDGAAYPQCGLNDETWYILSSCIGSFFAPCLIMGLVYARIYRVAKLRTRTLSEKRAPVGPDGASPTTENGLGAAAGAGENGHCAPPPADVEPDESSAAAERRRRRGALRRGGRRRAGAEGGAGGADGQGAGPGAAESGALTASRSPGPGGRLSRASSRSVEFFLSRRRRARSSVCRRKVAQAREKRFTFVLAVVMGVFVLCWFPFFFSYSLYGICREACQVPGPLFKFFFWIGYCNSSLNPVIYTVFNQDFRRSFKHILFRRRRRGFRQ
Experimental: as §1

[12] = target: OPRL1 (Nociceptin 1 receptor) (Homo sapiens, UniProt P41146); assay: DiscoverX GPCR Max Panel screen; type: cell-based; conditions: VDM-001 at 30 μM; Assay Mode Antagonist
Experimental: as §1

[13] = target: HTR1B (Serotonin 1B receptor) (Homo sapiens, UniProt P28222); assay: DiscoverX GPCR Max Panel screen; type: cell-based; conditions: VDM-001 at 30 μM; Assay Mode Antagonist
Experimental: as §1

ORL1 receptors = ORL1 receptors (Homo sapiens, UniProt P41146); assay: Receptor activity profile (stated)
MOR = MOR (Homo sapiens, UniProt P35372); assay: GTPgS studies; type: biochemical; conditions: read-out: IC50 from the GTPgS studies
mu opioid receptors = mu opioid receptors (Homo sapiens, UniProt P35372); assay: Receptor activity profile (stated)
kappa receptors = kappa receptors (Homo sapiens, UniProt P41145); assay: Receptor activity profile (stated)
morphine-dependent rats = assay: Opiate withdrawal signs in morphine-dependent rats

OPRM1 (Mu Opiate receptor), sequence (P35372 whole entry): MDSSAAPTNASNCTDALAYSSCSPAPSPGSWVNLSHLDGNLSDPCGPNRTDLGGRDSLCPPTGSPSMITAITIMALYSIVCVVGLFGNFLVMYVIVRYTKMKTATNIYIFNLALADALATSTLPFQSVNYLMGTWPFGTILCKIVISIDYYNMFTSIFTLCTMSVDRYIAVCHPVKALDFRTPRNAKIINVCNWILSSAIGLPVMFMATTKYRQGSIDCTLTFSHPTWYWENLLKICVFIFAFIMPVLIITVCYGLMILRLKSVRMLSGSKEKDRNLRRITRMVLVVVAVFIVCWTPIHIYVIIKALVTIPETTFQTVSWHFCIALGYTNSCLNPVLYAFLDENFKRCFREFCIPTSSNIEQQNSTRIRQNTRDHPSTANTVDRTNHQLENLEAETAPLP
kappa receptors, sequence (P41145 whole entry): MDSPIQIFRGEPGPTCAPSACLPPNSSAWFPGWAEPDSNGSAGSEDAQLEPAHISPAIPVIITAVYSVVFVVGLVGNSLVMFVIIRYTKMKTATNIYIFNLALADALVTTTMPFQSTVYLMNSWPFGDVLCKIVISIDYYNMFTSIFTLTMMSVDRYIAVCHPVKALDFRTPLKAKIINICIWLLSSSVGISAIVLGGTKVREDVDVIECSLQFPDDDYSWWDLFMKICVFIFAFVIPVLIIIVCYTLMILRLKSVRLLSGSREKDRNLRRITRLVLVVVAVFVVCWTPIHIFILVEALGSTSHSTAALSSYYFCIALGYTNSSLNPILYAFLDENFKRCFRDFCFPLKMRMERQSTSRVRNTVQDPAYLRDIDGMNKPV
HRH1 (Histamine H1 receptor), sequence (P35367 whole entry): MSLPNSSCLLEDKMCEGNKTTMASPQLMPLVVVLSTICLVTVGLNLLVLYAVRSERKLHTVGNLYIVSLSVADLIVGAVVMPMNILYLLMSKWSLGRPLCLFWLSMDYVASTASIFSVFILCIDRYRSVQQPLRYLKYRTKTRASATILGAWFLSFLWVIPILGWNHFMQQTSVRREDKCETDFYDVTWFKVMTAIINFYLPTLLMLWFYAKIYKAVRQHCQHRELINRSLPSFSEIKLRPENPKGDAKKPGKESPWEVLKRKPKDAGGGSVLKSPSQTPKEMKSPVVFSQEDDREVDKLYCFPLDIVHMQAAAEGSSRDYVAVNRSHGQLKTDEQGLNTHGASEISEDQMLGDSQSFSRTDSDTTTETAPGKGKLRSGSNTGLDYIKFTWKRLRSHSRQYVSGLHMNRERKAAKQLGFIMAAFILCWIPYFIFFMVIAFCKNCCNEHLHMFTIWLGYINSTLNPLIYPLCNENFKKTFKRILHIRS
ORL1 receptors, sequence (P41146 whole entry): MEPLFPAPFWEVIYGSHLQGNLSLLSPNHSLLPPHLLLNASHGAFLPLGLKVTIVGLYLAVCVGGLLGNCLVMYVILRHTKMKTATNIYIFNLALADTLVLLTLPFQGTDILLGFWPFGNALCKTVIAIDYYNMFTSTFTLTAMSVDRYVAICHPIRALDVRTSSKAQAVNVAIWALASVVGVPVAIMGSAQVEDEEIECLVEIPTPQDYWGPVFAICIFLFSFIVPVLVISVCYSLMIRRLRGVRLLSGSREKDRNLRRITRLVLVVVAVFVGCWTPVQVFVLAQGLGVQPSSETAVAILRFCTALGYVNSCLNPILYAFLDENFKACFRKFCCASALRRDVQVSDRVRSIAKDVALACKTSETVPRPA
OPRL1 (Nociceptin 1 receptor), sequence (P41146 whole entry): as above
CHRM3 (Cholinergic Muscarinic Receptor 3), sequence (P20309 whole entry): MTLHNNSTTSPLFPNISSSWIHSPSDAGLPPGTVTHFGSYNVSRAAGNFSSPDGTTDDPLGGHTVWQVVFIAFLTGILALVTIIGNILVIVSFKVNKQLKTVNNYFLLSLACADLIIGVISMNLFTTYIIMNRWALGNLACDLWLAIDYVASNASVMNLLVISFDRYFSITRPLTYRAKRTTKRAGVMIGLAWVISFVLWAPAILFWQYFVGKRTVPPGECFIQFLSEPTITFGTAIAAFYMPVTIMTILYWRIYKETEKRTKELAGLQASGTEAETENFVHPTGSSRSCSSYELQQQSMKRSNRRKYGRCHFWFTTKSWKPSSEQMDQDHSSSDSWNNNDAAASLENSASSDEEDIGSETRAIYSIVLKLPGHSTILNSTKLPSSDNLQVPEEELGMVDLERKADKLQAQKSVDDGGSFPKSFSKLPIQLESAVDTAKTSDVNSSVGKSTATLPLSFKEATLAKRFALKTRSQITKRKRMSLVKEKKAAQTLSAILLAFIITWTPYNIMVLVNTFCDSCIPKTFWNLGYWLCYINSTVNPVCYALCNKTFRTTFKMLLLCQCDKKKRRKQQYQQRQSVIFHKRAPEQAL
HTR1B (Serotonin 1B receptor), sequence (P28222 whole entry): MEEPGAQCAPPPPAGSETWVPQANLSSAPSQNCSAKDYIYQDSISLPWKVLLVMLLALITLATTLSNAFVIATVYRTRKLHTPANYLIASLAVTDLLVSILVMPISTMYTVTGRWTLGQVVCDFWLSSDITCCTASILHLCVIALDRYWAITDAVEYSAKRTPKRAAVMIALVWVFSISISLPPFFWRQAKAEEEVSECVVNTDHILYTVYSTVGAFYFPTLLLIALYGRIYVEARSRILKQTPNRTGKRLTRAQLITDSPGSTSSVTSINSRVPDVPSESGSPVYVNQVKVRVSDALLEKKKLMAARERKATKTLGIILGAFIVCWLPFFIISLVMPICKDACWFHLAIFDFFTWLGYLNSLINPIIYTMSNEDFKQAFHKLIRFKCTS
MOR, sequence (P35372 whole entry): as the sequence (P35372 whole entry) above
mu opioid receptors, sequence (P35372 whole entry): as above

## CCC(=O)NC1CC(C)N(CCc2ccccc2)CC1C (stereo not drawn) [VDM-001, N-[2,5-dimethyl-1-(2-phenylethyl)piperidin-4-yl]propanamide]
Sigma sites
  mode of action at Sigma sites: either agonist or antagonist activity
[1]
  Activity: 72%
[2]
  Activity: 75%
[3]
  Activity: 72%
[4]
  Activity: 87%
[5]
  Activity: 98%
[6]
  Activity: 73%
[7]
  Activity: 74%
[8]
  Activity: 85%
[9]
  Activity: 84%
[10]
  Activity: 99%
[11]
  Activity: 104%
[12]
  Activity: 54%
[13]
  Activity: 60%
ORL1 receptors
  mode of action at ORL1 receptors: antagonist
MOR
  pIC50: 4.52
Mu opioid receptors
  mode of action at mu opioid receptors: partial agonist
Kappa receptors
  mode of action at kappa receptors: antagonist
morphine-dependent rats; 20 mg/kg, equal to the control
  incidence of diarrhea: around 1%
morphine-dependent rats; 40 mg/kg
  incidence of diarrhea: less than 20%
morphine-dependent rats; 20 or 40 mg/kg
  opiate withdrawal signs: minimal, if any, opiate withdrawal signs; also recorded: did not precipitate morphine withdrawal symptoms; also recorded: did not show significant withdrawal signs

## C=CCN1CC[C@]23c4c5ccc(O)c4O[C@H]2C(=O)CC[C@@]3(O)[C@H]1C5 [naloxone, 17-allyl-4,5a-epoxy-3,14-dihydroxymorphinan-6-one, reference compound]
morphine-dependent rats; 1 mg/kg
  incidence of diarrhea: over 80%
  opiate withdrawal signs: large opiate withdrawal signs
morphine-dependent rats; 1 mg/kg, listed as Naloxone
  opiate withdrawal signs: precipitated a large number of withdrawal signs
